Data reported in US20230391770A1, “METTL3 INHIBITORY COMPOUNDS” (Storm Therapeutics Limited, priority 2020, published 2023).

What was measured:
KASUMI-1 cells = assay: Kasumi cell assay (CellTiter-Glo cell growth); format: cell-based; settings: Homo sapiens, 120 hours treatment, 30 μM top concentration
Experimental: Cell culture: KASUMI-1 cells (ACC20, Leibniz-Institut DSMZ Deutsche Sammlung von Mikroorganismen und Zellkulturen GmbH) were grown in RPMI 1640 (31870-025, Gibco) supplemented with 20% fetal bovine serum (F1524, Gibco), 1 mM sodium pyruvate (11360-039, Gibco) and 2 mM Glutamax (35050-038, Gibco) in a 5% CO2 humidified incubator at 37° C.
Cell treatment and cell growth assessment: KASUMI-1 […] were seeded in ultra-low attachment 384-well culture plate (MS-9384WZ, SBio) at a final concentration of 250,000 cells/ml (35 μL/well) and treated for 120 hours with compounds inhibiting the METTL3/14 activity (10 serial semi-log dilutions, 30 μM as top concentration). Upon treatment, Kasumi1 cells were incubated for 10 min at RT with the CellTiter-Glo reagent (G7571, Promega). Measurement of the luminescence signal was performed on a microplate reader (Ensight, PerkinElmer).

Caov-3 cells = assay: Caov3 CTG proliferation assay (CellTiter-Glo); format: cell-based; settings: Homo sapiens, 120 hours treatment, 30 μM top concentration
Experimental: Cell treatment and cell growth assessment: 18 hours post-seeding in white 384-Viewplate (6007480, PerkinElmer) at 1500 cells/well, Caov3 cells were treated for 120 hours with compounds inhibiting the METTL3/14 activity (10 serial semi-log dilutions, 30 μM as top concentration). Upon treatment, Coav-3 cells were incubated for 10 min at RT with the CellTiter-Glo reagent (G7571, Promega). Measurement of the luminescence signal was performed on a microplate reader (Ensight, PerkinElmer).

METTL3/14 = METTL3/14 (Homo sapiens (Human), UniProt Q86U44); assay: METTL3/14 methyltransferase biochemical assay (RapidFire mass spectrometry, METTL3_14 RFMS)
Experimental: The enzymatic assay was established to determine IC50 values for inhibition of RNA methyltransferase activity. The enzyme used was full-length his-tagged METTL3 co-expressed with full length FLAG-tagged METTL14 in a baculovirus expression system. […] The reaction was incubated for further 60 minutes at room temperature, and then quenched by the addition of 40 μL 7.5% TCA with two internal product standards (D4-SAH and ^13C10-SAH). After termination, plates were sealed, centrifuged and stored at 4° C. until analysis. […] RNA methyltransferase activity was measured label free using the RapidFireTM mass spectrometry (RF/MS) platform. Stopped and stable assay plates were analyzed on the Agilent RF300 integrated autosampler/solid-phase extraction (SPE) system coupled to an ABSciex 4000 mass spectrometer for the generation of the product S-adenosyl homocysteine (SAH) and normalized to the ratio of signal of the two internal product standards, respectively. Solvent A was water containing 0.1% (v/v) TCA. Solvent B was acetonitrile/0.1% ammonium acetate (8:2, v/v).

Chain of METTL3/14 (Q86U44 whole entry): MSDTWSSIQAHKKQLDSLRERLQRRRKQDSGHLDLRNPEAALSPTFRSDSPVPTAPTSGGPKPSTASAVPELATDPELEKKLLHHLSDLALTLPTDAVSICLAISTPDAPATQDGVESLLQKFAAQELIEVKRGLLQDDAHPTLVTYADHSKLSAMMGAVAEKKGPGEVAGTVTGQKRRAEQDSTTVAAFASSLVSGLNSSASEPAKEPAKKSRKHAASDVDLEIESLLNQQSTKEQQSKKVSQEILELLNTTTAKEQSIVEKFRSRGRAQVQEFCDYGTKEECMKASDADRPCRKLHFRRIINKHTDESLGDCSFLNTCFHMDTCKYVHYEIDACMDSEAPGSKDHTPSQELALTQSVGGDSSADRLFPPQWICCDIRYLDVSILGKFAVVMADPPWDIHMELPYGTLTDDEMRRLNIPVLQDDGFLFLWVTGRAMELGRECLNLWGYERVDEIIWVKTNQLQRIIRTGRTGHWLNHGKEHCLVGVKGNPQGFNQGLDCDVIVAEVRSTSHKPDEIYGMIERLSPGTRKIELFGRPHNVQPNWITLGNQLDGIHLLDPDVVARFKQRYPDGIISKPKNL
Chain of METTL3/14 (Q9HCE5 whole entry partner): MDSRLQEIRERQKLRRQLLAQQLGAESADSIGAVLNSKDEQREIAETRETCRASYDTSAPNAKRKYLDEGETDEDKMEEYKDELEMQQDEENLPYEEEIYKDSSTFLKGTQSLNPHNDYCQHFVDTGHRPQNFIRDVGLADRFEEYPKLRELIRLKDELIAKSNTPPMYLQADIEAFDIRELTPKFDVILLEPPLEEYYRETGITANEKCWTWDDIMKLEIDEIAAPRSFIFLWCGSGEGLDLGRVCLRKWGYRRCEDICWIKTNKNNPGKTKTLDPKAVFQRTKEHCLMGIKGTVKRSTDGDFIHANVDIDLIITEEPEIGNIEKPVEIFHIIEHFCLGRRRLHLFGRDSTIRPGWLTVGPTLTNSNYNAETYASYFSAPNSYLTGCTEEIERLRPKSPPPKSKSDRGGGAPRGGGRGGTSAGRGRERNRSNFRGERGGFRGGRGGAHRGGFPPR

Compound	IC50 (KASUMI-1 cells)	IC50 (Caov-3 cells)	IC50 (METTL3/14)
O=C(NCc1cn2cc(CNCC34CC(F)(C3)C4)ccc2n1)c1cc(=O)n2ccsc2n1 [Example 19, N-[(6-{[({3-fluorobicyclo[1.1.1]pentan-1-yl}methyl)amino]methyl}imidazo[1,2-a]pyridin-2-yl)methyl]-5-oxo-5H-[1,3]thiazolo[3,2-a]pyrimidine-7-carboxamide]	1360 nM	364 nM	6.1 nM
COc1cc(-c2cn(Cc3cn4cc(CNCC5CCC5)ccc4n3)nn2)c2cncn2c1 [Example 22, (cyclobutylmethyl)({2-[(4-{6-methoxyimidazo[1,5-a]pyridin-8-yl}-1H-1,2,3-triazol-1-yl)methyl]imidazo[1,2-a]pyridin-6-yl}methyl)amine]	1150 nM	305 nM	6.1 nM
c1cc(-c2cn(Cc3cn4cc(CNCC5CCC5)ccc4n3)nn2)c2cncn2c1 [Example 23, (cyclobutylmethyl)({2-[(4-{imidazo[1,5-a]pyridin-8-yl}-1H-1,2,3-triazol-1-yl)methyl]imidazo[1,2-a]pyridin-6-yl}methyl)amine]	2940 nM	888 nM	6.1 nM
Fc1ncn2cccc(-c3cn(Cc4cn5cc(CNCC6CCC6)ccc5n4)nn3)c12 [Example 25, (cyclobutylmethyl)({2-[(4-{1-fluoroimidazo[1,5-a]pyridin-8-yl}-1H-1,2,3-triazol-1-yl)methyl]imidazo[1,2-a]pyridin-6-yl}methyl)amine]	4820 nM	2720 nM	15.8 nM
COc1cc(-c2cn(Cc3cn4cc(CNCC56CC(F)(C5)C6)ccc4n3)nn2)c2cncn2c1 [Example 26, ({3-fluorobicyclo[1.1.1]pentan-1-yl}methyl)({2-[(4-{6-methoxyimidazo[1,5-a]pyridin-8-yl}-1H-1,2,3-triazol-1-yl)methyl]imidazo[1,2-a]pyridin-6-yl}methyl)amine]	449 nM	110 nM	6.1 nM
COc1cc(-c2cn(Cc3cn4cc(CNCC56CC(C5)C6)ccc4n3)nn2)c2cncn2c1 [Example 28, ({bicyclo[1.1.1]pentan-1-yl}methyl)({2-[(4-{6-methoxyimidazo[1,5-a]pyridin-8-yl}-1H-1,2,3-triazol-1-yl)methyl]imidazo[1,2-a]pyridin-6-yl}methyl)amine]	316 nM	102 nM	6.1 nM
c1cc(-c2cn(Cc3cn4cc(CN5CC6(CCC6)C5)ccc4n3)nn2)c2cncn2c1 [Example 29, 2-({2-[(4-{imidazo[1,5-a]pyridin-8-yl}-1H-1,2,3-triazol-1-yl)methyl]imidazo[1,2-a]pyridin-6-yl}methyl)-2-azaspiro[3.3]heptane]	1570 nM	473 nM	6.5 nM
COc1cc(-c2cn(Cc3cn4cc(CN5CC6(CCC6)C5)ccc4n3)nn2)c2cncn2c1 [Example 30, 2-({2-[(4-{6-methoxyimidazo[1,5-a]pyridin-8-yl}-1H-1,2,3-triazol-1-yl)methyl]imidazo[1,2-a]pyridin-6-yl}methyl)-2-azaspiro[3.3]heptane]	2080 nM	598 nM	6.1 nM
COc1cnc(C#N)c(-c2cn(Cc3cn4cc(CNCC56CC(F)(C5)C6)ccc4n3)nn2)c1 [Example 41, 3-{1-[(6-{[({3-fluorobicyclo[1.1.1]pentan-1-yl}methyl)amino]methyl}imidazo[1,2-a]pyridin-2-yl)methyl]-1H-1,2,3-triazol-4-yl}-5-methoxypyridine-2-carbonitrile]	2660 nM	4070 nM	16 nM
COc1cncc(-c2cn(Cc3cn4cc(CNCC56CC(F)(C5)C6)ccc4n3)nn2)n1 [Example 44, ({3-fluorobicyclo[1.1.1]pentan-1-yl}methyl)[(2-{[4-(6-methoxypyrazin-2-yl)-1H-1,2,3-triazol-1-yl]methyl}imidazo[1,2-a]pyridin-6-yl)methyl]amine]	1990 nM	2440 nM	
COc1cncc(-c2cn(Cc3cn4cc(CNCC56CC(F)(C5)C6)ccc4n3)nn2)c1 [Example 45, ({3-fluorobicyclo[1.1.1]pentan-1-yl}methyl)[(2-{[4-(5-methoxypyridin-3-yl)-1H-1,2,3-triazol-1-yl]methyl}imidazo[1,2-a]pyridin-6-yl)methyl]amine]	2520 nM	918 nM	
COc1ccncc1-c1cn(Cc2cn3cc(CNCC45CC(F)(C4)C5)ccc3n2)nn1 [Example 47, ({3-fluorobicyclo[1.1.1]pentan-1-yl}methyl)[(2-{[4-(4-methoxypyridin-3-yl)-1H-1,2,3-triazol-1-yl]methyl}imidazo[1,2-a]pyridin-6-yl)methyl]amine]	4450 nM	1380 nM	13 nM
N#Cc1ncc(N2CCOCC2)cc1-c1cn(Cc2cn3cc(CNCC45CC(F)(C4)C5)ccc3n2)nn1 [Example 51, 3-{1-[(6-{[({3-fluorobicyclo[1.1.1]pentan-1-yl}methyl)amino]methyl}imidazo[1,2-a]pyridin-2-yl)methyl]-1H-1,2,3-triazol-4-yl}-5-(morpholin-4-yl)pyridine-2-carbonitrile]	1860 nM	1330 nM	6 nM
FC12CC(CNCc3ccc4nc(Cn5cc(-c6cncc(N7CCOCC7)c6)nn5)cn4c3)(C1)C2 [Example 52, ({3-fluorobicyclo[1.1.1]pentan-1-yl}methyl)({[2-({4-[5-(morpholin-4-yl)pyridin-3-yl]-1H-1,2,3-triazol-1-yl}methyl)imidazo[1,2-a]pyridin-6-yl]methyl})amine]	1610 nM	540 nM	6 nM
